These results are taken from article PMC12864594, “Photoactivated Proximity Protein Labeling Reveals Enhanced Tumor Retention of a D‐Peptide‐Ruthenium Prodrug Conjugate” (Advanced Healthcare Materials, 2025).

Where “and” joins values, the source holds several entries; their conditions need not be identical. Identical values can stand only once. Peptide text beside a SMILES is read from it.

The subject of data set [1] is A549 cells. As to the kind of experiment: Intracellular ROS generation, CellROX Deep Red probe, FACS. In kind it is cell-based, human. The note with it: for Normalized intracellular ROS generation, light: light 515 nm, 13.1 J cm^−2. How it is done: To determine the pathway by which the compounds cause cell death, a ROS generation assay was performed for Δ and Λ isomers of [1]Cl2–[3]Cl2 in A549 cells using the unspecific molecular probe CellROX Deep Red. This assay was used to quantify the formation of singlet oxygen, superoxide, and […], both in the dark or upon green light irradiation (515 nm, 13.1 J cm^−2). The cells treated with medium, Tert‐butyl hydroperoxide (tBHP), cisplatin, and Rose Bengal were used as vehicle control, positive control, negative control, and green light‐activated PDT type II control, respectively. These experiments were conducted in normoxic and hypoxic cells at the same time. The mean fluorescence intensity in each cell, which was quantified by FACS and normalized to that of controls, is a relative measure of intracellular ROS production (see Table 3; raw data in Figures S30 and S31, Supporting Information). At the end of the assay, the absolute ratio R, defined as the ratio of the ROS probe emission intensity in the light group, divided by that in the dark group, was used as quantification of light‐induced ROS production.
The generation of ROS (reactive oxygen species) in A549 cells was measured using the ROS deep red fluorescence indicator (Abcam, ab186029). A549 (1 × 10^5, 1 mL) were seeded into 12‐well plates (Sarstedt, 83.3921) and incubated for 24 h in the dark under normoxia. The cells were then treated with [1]Cl2 ‐[3]Cl2, cisplatin, Rose Bengal or [Ru(Ph2phen)2Cl2] (15 µM). There were two groups for each drug (dark and light). After 24 h of incubation under normoxia, the plate was washed with cold PBS once, and cells were trypsinized, harvested, and then resuspended in 150 µL PBS. The cell suspension from the centrifuge tubes was transferred to 96‐round bottom well plates (Thermo Scientific, 268200), and the plates were kept in the dark or irradiated with […] light (dose = 13.1 J cm^−2). After which, the Cellular ROS Deep Red dye was added with 1000× dilution, and the cells were further stained for 1 h. The levels of intracellular ROS were then determined using the CytoFLEX flow cytometer using the APC‐A (638 nm excitation, 660/10 nm emission) channel. All flow cytometry data were processed using FlowLogic 8.5 software.

The subject of data set [2] is A549 cells. Kind of data set: 2D cytotoxicity, sulforhodamine B (SRB) end point assay. Type of data set: cell-based, human. As to conditions: A549 2D normoxic cells, 72 h, without washing, no irradiation. How it is done: Considering the potential of the six diastereomers for PACT, and their better targeting of αvβ3 in hypoxic A549 cells, compared with PC‐3, their cytotoxicity was determined in 2D monolayers of normoxic and hypoxic A549 cells using a sulforhodamine B (SRB) cell quantification end point assay^[ [66] ^] in the dark (light dose 0 J cm^−2) or upon green light activation (light dose 13.1 J cm^−2). Half‐maximal effective concentrations (EC50 in µM) were measured as an evaluation of the toxicity of the compounds. The photoindex values (PI), defined as EC50,dark/ EC50,light, were calculated to quantify the extent of light activation in cancer cells. […]
A549 cells (5000) or PC‐3 cells (6000) were seeded in 96‐well plates (Sarstedt, 83.3924), each well contained 100 µL Opti‐MEM (Gibco complete medium 11058‐021, supplemented with 2.5% v/v fetal calf serum (FCS), 0.2% v/v penicillin/streptomycin (P/S), and 1% v/v glutamine) either in normoxic (21% O2) or hypoxic (1.0% O2) incubator. […] Finally, 100 µL of cold trichloroacetic acid (10% w/v) was added to each well to fix the cells, and all plates were then transferred to a 4 °C refrigerator for 48 h before performing an SRB cell quantification endpoint assay (see below).^[ [66] ^] […] Errors were calculated utilizing 95% confidence intervals (±CI in µM). […]

For data set [3] the following is noted: mixture of the Δ‐ and Λ‐ isomers; cited from earlier work. From the text:
Table 1 Photochemical properties of isolated Δ and Λ diastereoisomers of [1]Cl2–[3]Cl2 including molar extinction coefficients (ε, in M ^−1 cm^−1) at absorption maximum wavelength (405 nm), photosubstitution quantum yields for step 1 (ΦPS1) and step 2 (ΦPS2) in H2O or 50% MeCN in H2O under green light irradiation, and singlet oxygen quantum yields of each complexes in CD3OD. | column: Complex || To evaluate the efficiency of these ruthenium‐peptide conjugates [1]Cl2–[3]Cl2 as potential PDT type II agents, the quantum yields (ΦΔ) of singlet oxygen generation were further measured by direct spectroscopic detection of ^1O2 emission at 1275 nm in air‐saturated CD3OD (Table 1; Figure S21, Supporting Information). The ΦΔ value for a mixture of the Δ‐ and Λ‐ isomers of [1]Cl2 was already reported in our previous work (0.013 ± 0.005)^[ [51] ^]; within experimental errors, the values found for the isolated isomers were identical (0.008 ± 0.005 and 0.009 ± 0.005), and, like for the isomers of [ ...

[4] abbreviates: A549, hypoxia (1%), 15 µM, 24 h.
Where [5] appears, read: A549, hypoxia (1%), 15 µM, 24 h, dark, normalized to dark control.
Setting [6] is: A549, hypoxia (1%), 15 µM, 24 h, normalized to dark control.
Where [7] appears, read: A549, normoxia (21%), 15 µM, 24 h.
The mark [8] stands for this setting: A549, normoxia (21%), 15 µM, 24 h, dark, mean fluorescence normalized to dark control.
Setting [9] is: A549, normoxia (21%), 15 µM, 24 h, normalized to dark control.

For `CSCC[C@@H](NC(=O)[C@@H](CC(=O)O)NC(=O)CNC(=O)[C@@H](CCCNC(=N)N)NC(=O)[C@@H](CCSC)NC(C)=O)C(N)=O`, the molar extinction coefficient ε × 10^4 at 405 nm (× 10^4 M^−1 cm^−1) was 1.16 and 1.27.
`CSCC[C@H](NC(=O)[C@@H](CC(=O)O)NC(=O)CNC(=O)[C@@H](CCCNC(=N)N)NC(=O)[C@H](CCSC)NC(C)=O)C(N)=O` (HELM PEPTIDE1{[ac].M.[dR].G.[dD].M.[am]}$$$$V2.0): the molar extinction coefficient ε × 10^4 at 405 nm (× 10^4 M^−1 cm^−1) is 1.12 and 1.05.
On to `N.N.[Cl][Pt][Cl]` [Cisplatin, cisplatin], for which the “R (ROS probe emission light group / dark group)” value is listed as 2.00 in data set [1] (setting [4]) and 1.74 in data set [1] (setting [7]). In addition, the figures for the “Normalized intracellular ROS generation, dark” value in data set [1] (setting [5]) and in data set [1] (setting [8]) were 1.00 and 1.28, respectively. Further, the “Normalized intracellular ROS generation, light” value in data set [1] (setting [6]) was 1.99; in data set [1] (setting [9]), 2.23.
As to `O=C([O-])c1c(Cl)c(Cl)c(Cl)c(Cl)c1-c1c2cc(I)c(=O)c(I)c-2oc2c(I)c([O-])c(I)cc12.[Na+].[Na+]` [Rose Bengal], the “R (ROS probe emission light group / dark group)” value in data set [1] (setting [4]) is 3.05; in data set [1] (setting [7]), 5.2 and 5.21. Besides, the “Normalized intracellular ROS generation, dark” value in data set [1] (setting [5]) was 0.84; in data set [1] (setting [8]) it was 0.90. Further, the “Normalized intracellular ROS generation, light” value in data set [1] (setting [6]) is recorded as 2.56; in data set [1] (setting [9]), 4.71.
A word on the EC50: it is the concentration giving half of the maximal effect. High values mean a less potent agent, low ones a more potent agent. Regarding `F[P-](F)(F)(F)(F)F.F[P-](F)(F)(F)(F)F.[Ru+2].c1ccc(-c2ccnc3c2ccc2c(-c4ccccc4)ccnc23)cc1.c1ccc(-c2ccnc3c2ccc2c(-c4ccccc4)ccnc23)cc1` [[Ru(Ph2phen)2(H2O)2](PF6)2], the half-maximal effective concentration (EC50) in data set [2] is > 100 µM.
Take `CC(C)(C)OO` [tBHP, Tert‐butyl hydroperoxide]: the “Normalized intracellular ROS generation, dark” value in data set [1] (A549, hypoxia (1%), positive control 250 µM, 1 h) was 4.36; in data set [1] (A549, normoxia (21%), positive control 250 µM, 1 h) it was 14.00.
On to Ac-MRGDM-NH2, for which the molar extinction coefficient ε × 10^4 at 405 nm (× 10^4 M^−1 cm^−1) is 1.18 and 1.21.
As for “[Ru(Ph2phen)2(Ac‐MRGDM‐NH2)]Cl2 (sidechain bridge or staple) [[1]Cl2]”, the “ΦΔ (1O2) singlet oxygen quantum yield” value in data set [3] is reported as 0.013 ± 0.005.
